Paper PMC12703733, “Probing Guanidino Pendant or Bridged Groups in Cyclic Antimicrobial Peptides Derived from Temporin L: A Strategy to Improve Efficacy against Gram-Negative Bacteria” (Journal of Medicinal Chemistry, 2025)
≈ marks a conversion by molar mass, not a printed value. Like-named read-outs stand apart in the source and are kept apart here. Marks after values point to notes of the source that are not given here. Bridge positions count the residues as written; N and C are the ends. Square brackets hold non-standard residues; d marks the D form. Peptide text beside a SMILES is read from it.

Assays:
[1] = tested on: Gram-negative bacteria tested; test: MIC panel, Gram-negative strains (geometric mean); type: cell-based; details: geometric mean of the MICs against Gram-negative bacteria tested
Experimental: (§1) The antimicrobial efficacy of the TLcyc analogues was assessed against a representative panel of Gram-positive and Gram-negative bacterial strains, by determining their minimal inhibitory concentrations (MIC), as summarized in Table . To provide an integrated measure of antimicrobial potency, we calculated the geometric mean (GM) of MIC values across all strains (GMall), as well as separately for Gram-positive (GMGram+) and Gram-negative (GMGram–) bacteria.
(§2) Bacterial strains used in this study were the Gram-positive S. aureus ATCC 25923, S. epidermidis ATCC 12228, B. megaterium BM11, S. agalactiae ATCC 27591, E. faecalis ATCC 29212 and the Gram-negative E. coli ATCC 25922, P. aeruginosa ATCC 27853, A. baumannii ATCC 19606, E. coli D21 and P. aeruginosa PAO1. […] Bacterial cells in the mid log phase were diluted in Muller Hinton (MH) at a concentration of 2 × 10^6 cell/mL. Aliquots of 50 μL of this bacterial suspension were added to 50 μL of MH containing serial 2-fold dilutions of the peptides (from 100 to 0.19 μM) in the wells a 96-well plate. Ciprofloxacin was used as antibiotic control. The plate was then incubated at 37 °C. MICs were obtained from three identical readings of four independent experiments.

[2] = parameters: method as in Bellavita et al.; details: CD in H2O; previously determined for peptide 12; ref Bellavita et al.; cited from earlier work
[3] = tested on: S. epidermidis ATCC 12228; parameters: method as in Bellavita et al.; details: previously determined for peptide 12, ref Bellavita et al., cited from earlier work
P. aeruginosa ATCC 27853 = tested on: P. aeruginosa ATCC 27853; parameters: method as in Bellavita et al.; details: previously determined for peptide 12, ref Bellavita et al.; cited from earlier work
A. baumannii ATCC 19606 = tested on: A. baumannii ATCC 19606; parameters: method as in Bellavita et al.; details: previously determined for peptide 12, ref Bellavita et al., cited from earlier work
S. aureus ATCC 25923 = tested on: S. aureus ATCC 25923; parameters: method as in Bellavita et al.; details: previously determined for peptide 12, ref Bellavita et al., cited from earlier work
E. coli ATCC 25922 = tested on: E. coli ATCC 25922; parameters: method as in Bellavita et al.; details: previously determined for peptide 12, ref Bellavita et al., cited from earlier work
B. megaterium BM11 = tested on: B. megaterium BM11; parameters: method as in Bellavita et al.; details: previously determined for peptide 12, ref Bellavita et al., cited from earlier work
[4] = tested on: Gram-positive bacteria tested; test: MIC panel, Gram-positive strains (geometric mean, range); type: cell-based; details: geometric mean of the MICs against Gram-positive bacteria tested
Experimental: as §1, §2

all bacteria tested = test: MIC panel, geometric mean over all strains; type: cell-based; details: geometric mean of the MICs against all bacteria tested
Experimental: as §1, §2

P. aeruginosa PAO1 = test: microbe, parasite or virus in culture; type: cell-based; details: PAO1
In short: (§3)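 MICs were taken as three identical readings from four independent experiments, using mid-log cells at 2 × 10^6 cell/mL in Mueller Hinton medium incubated at 37 °C.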

S. agalactiae ATCC 27591 = test: microbe, parasite or virus in culture; type: cell-based; details: ATCC 27591
In short: as §3

E. coli D21 = test: microbe, parasite or virus in culture; type: cell-based; details: D21
In short: as §3

E. faecalis ATCC 29212 = test: microbe, parasite or virus in culture; type: cell-based; details: ATCC 29212
In short: as §3

In the case of `CC[C@H](C)[C@H](NC(=O)[C@H](CCCNC(=N)N)NC(=O)[C@@H]1CCC(=O)NCCCC[C@H](NC(=O)[C@H](Cc2ccccc2)NC(=O)[C@H](Cc2c[nH]c3ccccc23)NC(=O)[C@@H]2CCCN2C(=O)[C@@H](NC(=O)[C@@H](N)Cc2ccccc2)C(C)C)C(=O)N[C@@H](CCCCN)C(=O)N[C@@H](Cc2ccccc2)C(=O)N[C@H](CC(C)C)C(=O)N1)C(=O)N[C@@H](CC(C)C)C(N)=O` [Peptide 1, FVPWF[KKFlE]RIL] (H-FVPWFKKF[dL]ERIL-NH2; lactam 6-10), the “geometric mean GMGram–” value [1] is listed as 18.9 µM, the “Content in water (%) random” value [2] is listed as 55% and the “Content in water (%) α-helix” value [2] is listed as 2%. The “Content in water (%) β-strand” value [2] was 41%, the MIC ([3]; listed as 1 (TL cyc )) was 3.12 ^a μM and the MIC [3] was 3.12 µM (≈ 5.32 µg/mL). For the same compound, the MIC (P. aeruginosa ATCC 27853) was 100 ^a μM, the MIC (A. baumannii ATCC 19606; listed as 1 (TL cyc )) was 3.12 ^a μM and the MIC (A. baumannii ATCC 19606) was 3.12 µM (≈ 5.32 µg/mL). For the same compound, the MIC (S. aureus ATCC 25923; listed as 1 (TL cyc )) was 3.12 ^a μM, the MIC (S. aureus ATCC 25923) was 3.12 µM (≈ 5.32 µg/mL) and the MIC (E. coli ATCC 25922; listed as 1 (TL cyc )) was 25 ^a μM. For the same compound, the MIC (E. coli ATCC 25922) was 25 µM (≈ 42.6 µg/mL), the MIC (B. megaterium BM11; listed as 1 (TL cyc )) was 1.56 ^a μM and the MIC (B. megaterium BM11) was 1.56 µM (≈ 2.66 µg/mL). The “geometric mean GMGram+” value [4] was 3.12 µM, the “geometric mean GMall” value (all bacteria tested) was 7.67 µM and the MIC (P. aeruginosa PAO1) was 25 µM (≈ 42.6 µg/mL). The MIC (S. agalactiae ATCC 27591) was 3.12 µM (≈ 5.32 µg/mL), the MIC (E. coli D21) was 12.5 µM (≈ 21.3 µg/mL) and the MIC (E. faecalis ATCC 29212) was 6.25 µM (≈ 10.7 µg/mL).
